Where a SMILES comes first, the peptide text is derived from it. Bridges are numbered along the chain shown (N, C = ends). [ ]: non-standard residue; d: D form. The star is where a group is joined. X1 = NC[C@@H](CC(=O)*)c1cccc(Cl)c1; Dab = NCC[C@H](N)C(=O)O; Dap = NC[C@H](N)C(=O)O
What was measured:
[1] = test system: P. aeruginosa ATCC BAA-3107 (SEN) and P. aeruginosa LESB58 (MDR); test: microbe, parasite or virus in culture; type: cell-based, Pseudomonas aeruginosa; details: for MIC of ancestor: ancestor strain; for MIC: across three biological replicates
How it was run: (§1)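 Broth microdilution in cation-adjusted Mueller-Hinton Broth 2 (except SCH79797), 11 to 16-step serial dilutions, inoculum 5 × 10^5 cells per mL. Plates shaken at 37 °C for 18 hours, 2 replicates. MIC taken as lowest concentration giving complete growth inhibition, OD600 < 0.05; relative MIC = MICevolved/MICancestor.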

[2] = test system: A. baumannii ATCC 17978 (SEN) and A. baumannii ATCC BAA-1605 (MDR); test: microbe, parasite or virus in culture; type: cell-based, Acinetobacter baumannii; details: for MIC: across three biological replicates
How it was run: as §1

[3] = test system: K. pneumoniae ATCC 10031 (SEN) and K. pneumoniae ATCC 700603 (MDR); test: microbe, parasite or virus in culture; type: cell-based, Klebsiella pneumoniae; details: for MIC: across three biological replicates
How it was run: as §1

[4] = test system: K. pneumoniae ATCC 10031 (SEN) and K. pneumoniae ATCC 700603 (MDR); test: Adaptive laboratory evolution (ALE), relative MIC of evolved lines; type: cell-based, Klebsiella pneumoniae
How it was run: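 Ten parallel populations per antibiotic–ancestor pair were evolved in MHB at 37 °C, starting near 50% growth-inhibiting drug. Every 72 h they were passaged into 0.5–2.5× increasing concentrations, keeping the highest-drug well with OD600 > 0.2.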

Structure (SMILES): CC(C)C[C@@H]1NC(=O)[C@@H](Cc2ccccc2)NC(=O)[C@H](CCN)NC(=O)[C@@H](NC(=O)[C@H](CN)NC(=O)[C@@H](NC(=O)C[C@H](CN)c2cccc(Cl)c2)[C@@H](C)O)CCNC(=O)[C@H]([C@@H](C)O)NC(=O)[C@H](CCN)NC(=O)[C@H](CCN)NC1=O [SPR206] (X1-T[Dap][Dab][Dab][dF]L[Dab][Dab]T; lactam 3-C (inferred); N-terminus assumed)
- MIC of ancestor ([1]; P. aeruginosa ATCC BAA 3107 (PA-SEN)): 1 µg/mL
- MIC of ancestor ([1]; P. aeruginosa ATCC BAA 3107 (PA-SEN), sheet fig 2a): 1 µg/mL
- MIC of ancestor ([1]; P. aeruginosa LESB 58 (PA-MDR)): 4 µg/mL
- MIC of ancestor ([1]; P. aeruginosa LESB 58 (PA-MDR), sheet fig 2a): 4 µg/mL
- MIC ([1]; Pseudomonas aeruginosa ATCC BAA-3107 (PA-SEN)): 1 µg/mL
- MIC ([1]; Pseudomonas aeruginosa LESB 58 (PA-MDR)): 4 µg/mL
- MIC of ancestor ([2]; A. baumannii ATCC 17978 (AB-SEN), ancestor strain): 0.125 µg/mL
- MIC of ancestor ([2]; A. baumannii ATCC BAA 1605 (AB-MDR), ancestor strain): 0.125 µg/mL
- MIC of ancestor ([2]; Acinetobacter baumannii ATCC 17978 (AB-SEN), ancestor strain, sheet fig 2a): 0.125 µg/mL
- MIC ([2]; Acinetobacter baumannii ATCC 17978 (AB-SEN)): 0.125 µg/mL
- MIC of ancestor ([2]; Acinetobacter baumannii ATCC BAA 1605 (AB-MDR), ancestor strain, sheet fig 2a): 0.125 µg/mL
- MIC ([2]; Acinetobacter baumannii ATCC BAA-1605 (AB-MDR)): 0.125 µg/mL
- MIC of ancestor ([2]; ancestor AB-SEN (Acinetobacter baumannii ATCC 17978)): 0.125 µg/mL
- MIC of ancestor ([3]; Klebsiella pneumoniae ATCC 10031 (KP-SEN), ancestor strain, sheet fig 2a): 0.5 µg/mL
- MIC ([3]; Klebsiella pneumoniae ATCC 10031 (KP-SEN)): 0.5 µg/mL
- MIC of ancestor ([3]; Klebsiella pneumoniae ATCC 700603 (KP-MDR), ancestor strain, sheet fig 2a): 0.5 µg/mL
- MIC ([3]; Klebsiella pneumoniae ATCC 700603 (KP-MDR)): 0.5 µg/mL
- MIC of ancestor ([3]; ancestor KP-MDR (Klebsiella pneumoniae ATCC 700603)): 0.5 µg/mL
- MIC of ancestor ([3]; ancestor KP-SEN (Klebsiella pneumoniae ATCC 10031)): 0.5 µg/mL
- Relative MIC ([4]; ALE, K. pneumoniae ATCC 700603 (KP-MDR), evolved line 7): 512
- Relative MIC ([4]; ALE, K. pneumoniae ATCC 700603 (KP-MDR), evolved line 8): 1024
- Relative MIC ([4]; ALE, K. pneumoniae ATCC 700603 (KP-MDR), evolved line 9): 1024
- Relative MIC ([4]; ALE, K. pneumoniae ATCC 700603 (KP-MDR), evolved line 10): 512
- Relative MIC ([4]; ALE, Klebsiella pneumoniae ATCC 10031 (KP-SEN), evolved line 1): 2048
- Relative MIC ([4]; ALE, Klebsiella pneumoniae ATCC 10031 (KP-SEN), evolved line 2): 2
- Relative MIC ([4]; ALE, Klebsiella pneumoniae ATCC 10031 (KP-SEN), evolved line 3): 2048
- Relative MIC ([4]; ALE, Klebsiella pneumoniae ATCC 10031 (KP-SEN), evolved line 4): 2048
- Relative MIC ([4]; ALE, Klebsiella pneumoniae ATCC 10031 (KP-SEN), evolved line 6): 2048
- Relative MIC ([4]; ALE, Klebsiella pneumoniae ATCC 10031 (KP-SEN), evolved line 7): 2
- Relative MIC ([4]; ALE, Klebsiella pneumoniae ATCC 10031 (KP-SEN), evolved line 8): 2
- Relative MIC ([4]; ALE, Klebsiella pneumoniae ATCC 10031 (KP-SEN), evolved line 10): 2048
- Relative MIC ([4]; ALE, Klebsiella pneumoniae ATCC 700603 (KP-MDR), evolved line 1): 256
- Relative MIC ([4]; ALE, Klebsiella pneumoniae ATCC 700603 (KP-MDR), evolved line 2): 1024
- Relative MIC ([4]; ALE, Klebsiella pneumoniae ATCC 700603 (KP-MDR), evolved line 3): 512
- Relative MIC ([4]; ALE, Klebsiella pneumoniae ATCC 700603 (KP-MDR), evolved line 4): 256
- Relative MIC ([4]; ALE, Klebsiella pneumoniae ATCC 700603 (KP-MDR), evolved line 5): 256
- Relative MIC ([4]; ALE, Klebsiella pneumoniae ATCC 700603 (KP-MDR), evolved line 6): 512
- MIC of evolved line ([4]; KP-MDR (K. pneumoniae ATCC 700603), evolved line 1 of the given antibiotic): 128 µg/mL
- Relative MIC ([4]; KP-MDR (K. pneumoniae ATCC 700603), evolved line 1 vs ancestor): 256
- MIC of evolved line ([4]; KP-MDR (K. pneumoniae ATCC 700603), evolved line 2 of the given antibiotic): 512 µg/mL
- Relative MIC ([4]; KP-MDR (K. pneumoniae ATCC 700603), evolved line 2 vs ancestor): 1024
- MIC of evolved line ([4]; KP-MDR (K. pneumoniae ATCC 700603), evolved line 3 of the given antibiotic): 256 µg/mL
- Relative MIC ([4]; KP-MDR (K. pneumoniae ATCC 700603), evolved line 3 vs ancestor): 512
- MIC of evolved line ([4]; KP-MDR (K. pneumoniae ATCC 700603), evolved line 4 of the given antibiotic): 128 µg/mL
- Relative MIC ([4]; KP-MDR (K. pneumoniae ATCC 700603), evolved line 4 vs ancestor): 256
- MIC of evolved line ([4]; KP-MDR (K. pneumoniae ATCC 700603), evolved line 5 of the given antibiotic): 128 µg/mL
- Relative MIC ([4]; KP-MDR (K. pneumoniae ATCC 700603), evolved line 5 vs ancestor): 256
- MIC of evolved line ([4]; KP-MDR (K. pneumoniae ATCC 700603), evolved line 6 of the given antibiotic): 256 µg/mL
- Relative MIC ([4]; KP-MDR (K. pneumoniae ATCC 700603), evolved line 6 vs ancestor): 512
- MIC of evolved line ([4]; KP-MDR (K. pneumoniae ATCC 700603), evolved line 7 of the given antibiotic): 256 µg/mL
- Relative MIC ([4]; KP-MDR (K. pneumoniae ATCC 700603), evolved line 7 vs ancestor): 512
- MIC of evolved line ([4]; KP-MDR (K. pneumoniae ATCC 700603), evolved line 8 of the given antibiotic): 512 µg/mL
- Relative MIC ([4]; KP-MDR (K. pneumoniae ATCC 700603), evolved line 8 vs ancestor): 1024
- MIC of evolved line ([4]; KP-MDR (K. pneumoniae ATCC 700603), evolved line 9 of the given antibiotic): 512 µg/mL
- Relative MIC ([4]; KP-MDR (K. pneumoniae ATCC 700603), evolved line 9 vs ancestor): 1024
- MIC of evolved line ([4]; KP-MDR (K. pneumoniae ATCC 700603), evolved line 10 of the given antibiotic): 256 µg/mL
- Relative MIC ([4]; KP-MDR (K. pneumoniae ATCC 700603), evolved line 10 vs ancestor): 512
- Relative MIC ([4]; KP-MDR (Klebsiella pneumoniae ATCC 700603), evolved line 1): 256
- Relative MIC ([4]; KP-MDR (Klebsiella pneumoniae ATCC 700603), evolved line 2): 1024
